Here are results for 1 compound from US6573276B2, “Muscarinic M1 agonist as an inhibitor of beta-amyloid (Aβ40 and Aβ42)-synthesis” (Boehringer Ingelheim Pharma KG, priority 2001, dated 2003).

Assay [1] relates to Aβ40. The experiment in a line: CSF levels of Aβ40 (sandwich ELISA) before and after 4 weeks of treatment, clinical phase II trial. Type of assay: in vivo, human. As for the experimental part:
(§1) To test whether this effect also occurs in humans, talsaclidine or placebo were administered to 40 patients with clinical diagnosis of probable senile dementia of Alzheimer-type and measured cerebrospinal fluid (CSF) levels of Aβ40 and Aβ42 before and at the end of 4 weeks of treatment. To control for specificity, CSF levels of both total tau and phosphorylated tau were also measured.
Diagnosis of probable Alzheimer's disease was made according to the National Institute of Neurological and Communicative Disorders and Stroke-Alzheimer's Disease and Related Disorders Association (NINCDS-ADRDA) as well as ICD10 criteria. All patients were community-dwelling and were referred to the participating dementia clinics from general practitioners, neurologists, and psychiatrists. All patients gave their informed consent and were screened for participation in a clinical phase II trial in accordance with GCP and ICH guidelines. The clinical phase II trial was designed to test the safety and tolerability of talsaclidine. […]
Sandwich ELISA was performed with the capture antibody 6E10 (Senetek, Maryland Heights, Mo.). […] After color development with 3,5,3′,5′-tetramethylbenzidine (TMB) and hydrogen peroxide, absorbance was read at 450 nm on a microplate reader (Victor2 Multilabel, EG&G® Wallac). […]
On the technique in general: ELISA stands for enzyme-linked immunosorbent assay.

Assay [2] relates to Aβ42. The experiment in a line: CSF levels of Aβ42 (sandwich ELISA) before and after 4 weeks of treatment, clinical phase II trial. The class given is in vivo, human. As to the method: as §1
(§2) Diagnosis of probable Alzheimer's disease was made according to the National Institute of Neurological and Communicative Disorders and Stroke-Alzheimer's Disease and Related Disorders Association (NINCDS-ADRDA) as well as ICD10 criteria. All patients were community-dwelling and were referred to the participating dementia clinics from general practitioners, neurologists, and psychiatrists. All patients gave their informed consent and were screened for participation in a clinical phase II trial in accordance with GCP and ICH guidelines. The clinical phase II trial was designed to test the safety and tolerability of talsaclidine. CSF measurements were performed within a scientific add-on protocol and additional separate informed consent to the multicenter clinical trial.
Patients were carefully examined and received a thorough clinical work-up. Psychometric testing included the Mini Mental State Examination (MMSE) as a global screening instrument for dementia, the Alzheimer's Disease Assessment Scale, cognitive part (ADAScog), the Clinical Global Impression (CGI) and the Behavioral Pathology in AD (BEHAVE-AD). There were 40 participants in the study with two CSF samples each. Among the inclusion criteria were age below 85 years, MMSE between 12 and 28, and the absence of relevant systemic disorders.
Talsaclidine was given, in a randomized, double-blind design, three times per day (t.i.d) in a constant dosage with increasing dose panels. Both capsules or tablets of different dose strength were applied. The specific formulations used are outlined in detail below.
The aforementioned pharmaceutical compositions were administered twice daily or three times per day to the patients. The following dosings were applied: 4.5 mg talsaclidine (n=5 patients); 9 mg (n=4); 18 mg (n=4); 36 mg (n=4); 72 mg (n=4); 96 mg (n=4); 108 mg (n=4); 120 mg (n=2); 144 mg (n=3); and placebo (n=6).
Within one week of dementia testing and before treatment, CFS was obtained by lumbar puncture according to conventional techniques. CFS samples were frozen on dry ice immediately upon withdrawal at the bedside in 0.5 ml aliquots and stored at −85° C. until biochemical analyses. A second lumbar puncture was done after four weeks of treatment and the CFS obtained was processed identically to the initial lumbar puncture. All available CFS samples were included in the analyses.
Sandwich ELISA was performed by using precoated plates (INNOTEST β-Amyloid 1-42, 8-well strips; Innogenetics, Belgium) with the capture antibody 21F12 (Innogenetics, Belgium). The capture 21F12 is specific for the free carboxyl terminus of Aβ42 (peptide sequence Aβ33-42). After washing (5×, room temperature), biotinylated antibody 6E10 at […] concentration in blocking buffer (50 mM Tris-HCl pH 7.5; 140 mM NaCl; 5 mM EDTA; 0.05% NP40; 0.25% gelatine; 1% BSA) was added. Each assay plate included a standard curve with highly purified Aβ42. After color development with TMP and Vectastain ABC detection (streptavidin-peroxidase complex, Vectastain Elite ABC Kit), absorbance was read at 450 nm. The linear range of the assay was 30 pg/ml to 5 ng/ml. There was no cross reactivity in either assay with Aβ42 or Aβ40.
Statistical analyses of data were done by Wilcoxon signed-rank tests for paired samples as well as by the Mann-Whitney U test for group comparisons. Bonferroni correction for multiple testing was performed. Analyses of covariates were used to test whether changes correlated with age, gender, or dementia severity.

The test system of assay [3] is tau protein. The experiment in a line: CSF levels of tau (sandwich ELISA) before and after 4 weeks of treatment, clinical phase II trial. Type of assay: in vivo, human. The conditions noted are these: patients. As to the method: as §1, §2
Patients were carefully examined and received a thorough clinical work-up. […]
The monoclonal antibody AT120 that reacts with both normal and HPF-tau was used in a sensitive sandwich ELISA (Innogenetics, Belgium). […] Absorbance was read at 450 nm. […]

Assay [4] relates to Aβ formation. The following applies: cell culture and brain slice models; background statement; cited from earlier work.
Where [5] appears, read: dosings 4.5 to 144 mg talsaclidine, four weeks.
[6] abbreviates: patients treated with talsaclidine, four weeks.

On to `C#CCOC1CN2CCC1CC2` (stereo not drawn) [talsaclidine], for which the “dose dependence of change of CSF levels of Aβ40” value in assay [1] (setting [5]) is given as “decreased dose dependently”. Further, in assay [1] (patients, four weeks of treatment), the “CSF levels of Aβ40 in total in comparison to placebo” value is recorded as “did not increase in total in comparison to placebo”. Further, the “dose dependence of the decrease of CSF levels of Aβ42” value in assay [2] (setting [5]) was “not dose dependently”. For the same compound, in assay [2] (setting [6]), the “patients in whom CSF levels of Aβ42 decreased” value was determined as 65%, the “patients in whom CSF levels of Aβ42 did not change” value came to 15% and the “patients in whom CSF levels of Aβ42 increased” value was 20%. Moreover, in assay [2] (patients with probable Alzheimer's disease, talsaclidine group n=34, starting value ('decreased from'), value after four weeks not given), the “mean CSF levels of Aβ42 (mean±SD)” value turned out to be 0.126 ± 0.073 ng/mL. Moreover, the “decrease of CSF levels of Aβ42 over time within the treatment group, median” value in assay [2] (patients, four weeks of treatment, n=34, significant) amounted to 17%. Also, the “decrease of CSF levels of Aβ42 compared to placebo, median” value in assay [2] (patients, four weeks of treatment, talsaclidine n=34 vs placebo n=6, significant) is reported as 23%. In assay [3] (n=34, dosings 4.5 to 144 mg talsaclidine, four weeks), the “dose dependence of change of CSF tau” value is given as “decreased dose dependently”. The “CSF tau in total in comparison to placebo” value in assay [3] (n=34, four weeks of treatment) is reported as “did not decrease in total in comparison to placebo”. Moreover, in assay [4], the Aβ formation result is recorded as “lowers Aβ formation”.
